Results on 16 compounds are retold here after patent publication US9221795B2, “Phosphatidylinositol 3-kinase inhibitors” (Gilead Sciences, Inc., priority 2013, dated 2015).

The structures appear in SMILES notation. pEC50, pIC50: −log10 of the molar value.

The target in data set [1] is PI3Kδ (Homo sapiens (Human), UniProt O00329). Nature of the data set: Enzymatic activity of PI3K isoforms, TR-FRET assay (PI3Kδ). Type of data set: biochemical. The following applies: 2× Km ATP, geometric mean if more than one value. As to the method:
Enzymatic activity of the class I PI3K isoforms in the presence of the compounds of Table 1 and Compounds X, Y and Z was measured using a time-resolved fluorescence resonance energy transfer (TR-FRET) assay. The TR-FRET assay was used to monitor formation of the product 3,4,5-inositol triphosphate molecule (PIP3) as it competed with fluorescently labeled PIP3 for binding to the GRP-1 pleckstrin homology domain protein. An increase in […] product results in a decrease in TR-FRET signal as the labeled fluorophore is displaced from the GRP-1 protein binding site.
Class I PI3K isoforms were expressed and purified as heterodimeric recombinant proteins. All assay reagents and buffers for the TR-FRET assay were purchased from Millipore. PI3K isoforms were assayed under initial rate conditions in the presence of 25 mM Hepes (pH 7.4), and 2× Km ATP (75-500 μM), 2 μM PIP2, 5% glycerol, 5 mM MgCl2, 50 mM NaCl, 0.05% (v/v) Chaps, 1 mM dithiothreitol, 1% (v/v) DMSO at the following concentrations for each isoforms: PI3Kα, PI3Kβ, and PI3Kδ between 25 and 50 pM, and PI3Kγ at 2 nM. After an assay reaction time of 30 minutes at 25° C., reactions were terminated with a final concentration of 10 mM EDTA, 10 nM labeled-PIP3, and 35 nM Europium labeled GRP-1 detector protein before reading TR-FRET on an Envision plate reader (Ex: 340 nm; Em: 615/665 nm; […] delay and 500 μs read window).
Data were normalized based on positive ([…] wortmanin) and negative (DMSO) controls. α, β, δ, and γ IC50 values were calculated from the fit of the dose-response curves to a four-parameter equation. All IC50 values represent geometric mean values if more than one value was obtained. IC50 values were reported in units of nM.
Background: In TR-FRET formats the signal depends on donor and acceptor labels being close together.

For data set [2], the system named is basophils. The experiment in a line: Basophil activation in human whole blood (Flow2 CAST kit, CD63 flow cytometry). Type of data set: cell-based. As for the experimental part:
Effect on basophil activation was measured in human whole blood using the Flow2 CAST® kit (Buhlmann Laboratories AG, Baselstrasse, Switzerland) following the protocol provided by the manufacturer with minor modifications. Human whole blood was collected into K2-EDTA venipuncture tubes. Whole blood samples were treated with either DMSO (0.3% final) or a serial dilution of compounds in DMSO for 60 minutes at 37° C. Basophils were then activated either with anti-FcεRI mAb or with fMLP. To activate basophils using the anti-FcεRI mAb; 50 μL of whole blood was mixed with 110 μL of stimulation buffer (B-BAT-STB) and 20 μl of anti-FcεRI (B-BAT-STCON). To activate basophils with fMLP; 50 μL of whole blood was mixed with 80 μL of stimulation buffer (B-BAT-STB) and 50 μL of fMLP (B-CCR-FMLP). Stimulation buffer was used as a negative control. 20 μL of the staining reagent (combination of anti-human CD63-FITC and anti-human CCR3-PE mAbs) was then added to each tube. The tubes were mixed gently and incubated for 25 minutes at 37° C. Subsequently, erythrocytes were lysed and fixed by the addition of 2 mL of lysing solution (B-BAT-LYR) for 10 minutes at room temperature. Cells were pelleted by centrifugation at 1200 rpm for 10 minutes at room temperature in a swing-out rotor. Supernatant was aspirated and cell pellet resuspended in 400 μL of wash buffer. Flow cytometric analysis of the basophil activation was performed on a FC500MPL flow cytometer (Beckman Coulter Inc., Fullerton, Calif.). CCR3-staining and side scatter were applied to gate at least 200 basophils that expressed a high density of CCR3. The percent CD63 positive cells within the gated basophil population were determined in different treatment groups and normalized to the vehicle control (0.3% DMSO) with anti-FcεRI mAb of fMLP stimulus as 100%. Final compound concentration was adjusted to correct for dilution effect of added reagents. The EC50 values were calculated from the analysis of the dose-response curves to a four-parameter equation.

Data set [3] is described as follows: Hepatocyte stability (parent drug disappearance in cryopreserved hepatocytes). Type of data set: in vitro ADME, human. The settings on record: human, human hepatocytes. As for the experimental part: This assay was used to evaluate the metabolic stability of test articles (TA) following incubation in cryopreserved hepatocytes by monitoring parent drug disappearance via LC/MC. The TA was incubated with 1 million hepatocytes/mL at 2 μM substrate in duplicate. The incubation was carried out at 37° C. with 5% CO2 and saturating humidity. Samples were taken at 0, 1, 2, and 4 hours to monitor the disappearance of TA and a half-life (t1/2) was determined. Table 3 below summarizes the human hepatocyte t1/2 values (hours) collected in the Example.

The mark [4] stands for this setting: Homo sapiens, class symbol, human whole blood, basophils activated with anti-FcεRI mAb or fMLP, percent CD63 positive cells.
The mark [5] stands for this setting: Homo sapiens, human whole blood, basophils activated with anti-FcεRI mAb or fMLP, percent CD63 positive cells, geometric mean.

PI3Kδ, sequence (O00329 whole entry, the tested form may be a part, canonical isoform): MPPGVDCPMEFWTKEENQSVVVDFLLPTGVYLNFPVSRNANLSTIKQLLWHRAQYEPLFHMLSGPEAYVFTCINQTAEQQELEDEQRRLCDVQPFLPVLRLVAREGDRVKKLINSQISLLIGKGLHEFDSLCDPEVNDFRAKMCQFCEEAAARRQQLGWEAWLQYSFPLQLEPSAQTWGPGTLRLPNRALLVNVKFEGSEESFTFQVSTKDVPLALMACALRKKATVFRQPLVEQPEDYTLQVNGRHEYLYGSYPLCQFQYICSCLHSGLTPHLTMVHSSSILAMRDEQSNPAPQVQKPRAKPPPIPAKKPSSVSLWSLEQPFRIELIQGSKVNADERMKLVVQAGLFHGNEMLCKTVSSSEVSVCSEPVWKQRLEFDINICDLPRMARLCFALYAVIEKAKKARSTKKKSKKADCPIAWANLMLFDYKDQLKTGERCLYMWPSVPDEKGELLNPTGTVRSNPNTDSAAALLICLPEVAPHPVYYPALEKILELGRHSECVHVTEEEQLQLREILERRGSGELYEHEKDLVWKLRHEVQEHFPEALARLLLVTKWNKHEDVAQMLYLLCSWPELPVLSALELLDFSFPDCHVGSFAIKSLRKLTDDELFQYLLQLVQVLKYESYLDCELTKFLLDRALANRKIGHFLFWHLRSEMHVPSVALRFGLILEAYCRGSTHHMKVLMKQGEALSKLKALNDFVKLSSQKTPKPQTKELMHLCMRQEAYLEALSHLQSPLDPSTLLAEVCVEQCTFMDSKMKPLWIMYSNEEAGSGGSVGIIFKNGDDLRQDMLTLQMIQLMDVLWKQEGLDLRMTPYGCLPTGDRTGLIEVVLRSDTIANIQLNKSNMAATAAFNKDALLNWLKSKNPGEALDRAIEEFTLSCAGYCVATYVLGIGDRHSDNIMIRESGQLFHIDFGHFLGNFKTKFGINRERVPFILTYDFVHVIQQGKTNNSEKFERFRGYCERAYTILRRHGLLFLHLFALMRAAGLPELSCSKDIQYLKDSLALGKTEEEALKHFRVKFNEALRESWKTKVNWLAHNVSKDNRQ
PI3Kδ, sequence (P27986 whole entry partner, the tested form may be a part, canonical isoform): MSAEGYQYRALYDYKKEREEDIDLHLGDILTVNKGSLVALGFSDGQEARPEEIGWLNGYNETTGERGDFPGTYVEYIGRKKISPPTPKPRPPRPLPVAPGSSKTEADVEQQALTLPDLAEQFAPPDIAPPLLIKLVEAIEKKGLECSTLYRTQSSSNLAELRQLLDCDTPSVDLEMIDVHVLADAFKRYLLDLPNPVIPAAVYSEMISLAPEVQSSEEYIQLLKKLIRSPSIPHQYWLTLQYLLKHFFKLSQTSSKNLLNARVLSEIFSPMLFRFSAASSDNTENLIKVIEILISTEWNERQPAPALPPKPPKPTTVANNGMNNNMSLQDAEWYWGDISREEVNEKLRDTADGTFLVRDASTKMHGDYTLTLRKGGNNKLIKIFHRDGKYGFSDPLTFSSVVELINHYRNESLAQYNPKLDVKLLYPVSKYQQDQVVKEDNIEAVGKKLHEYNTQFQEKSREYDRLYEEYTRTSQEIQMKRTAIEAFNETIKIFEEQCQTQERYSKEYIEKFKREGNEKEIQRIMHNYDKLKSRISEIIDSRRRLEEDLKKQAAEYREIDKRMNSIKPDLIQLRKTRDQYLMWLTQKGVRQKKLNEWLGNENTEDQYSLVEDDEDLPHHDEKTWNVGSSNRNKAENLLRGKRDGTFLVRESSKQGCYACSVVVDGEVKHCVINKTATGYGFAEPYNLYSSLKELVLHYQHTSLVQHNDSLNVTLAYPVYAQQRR

For `Cc1ccncc1-n1c([C@H](C)Nc2nc(N)nc(N)c2C#N)nc2ccc(F)c(Cl)c2c1=O` (atropisomer, axis not shown) [Compound 43, (S)-2,4-diamino-6-(1-(5-chloro-6-fluoro-3-(4-methylpyridin-3-yl)-4-oxo-3,4-dihydroquinazolin-2-yl)ethylamino)pyrimidine-5-carbonitrile], in data set [1], the pIC50 (as a rule, −log10 of the IC50, conventionally taken in molar units) is 8.40. In addition, the pEC50 (in general, the negative decadic logarithm of the EC50, by convention in mol/L) in data set [2] (class symbol, human whole blood, basophils activated with anti-FcεRI mAb or fMLP, percent CD63 positive cells) was 8.00 to 9.00; in data set [2] (human whole blood, basophils activated with anti-FcεRI mAb or fMLP, percent CD63 positive cells, geometric mean), 8.70.

Regarding `Cc1c(F)cncc1-n1c([C@H](C)Nc2nc(N)nc(N)c2C#N)nc2cccc(Cl)c2c1=O` (atropisomer, axis not shown) [Compound 46, (S)-2,4-diamino-6-(1-(5-chloro-3-(5-fluoro-4-methylpyridin-3-yl)-4-oxo-3,4-dihydroquinazolin-2-yl)ethylamino)pyrimidine-5-carbonitrile], in data set [1], the pIC50 is 7.42. Moreover, the half-life (usually how long it takes for the measured level to halve) at 2 μM was 6 to 10 h in data set [3] (cryopreserved human hepatocytes, class symbol, 2 μM substrate, 37° C.) and 8 h in data set [3] (cryopreserved human hepatocytes, 2 μM substrate, 37° C., Table 3).

Compound `N#Cc1c(N)nc(N)nc1N[C@@H](CC1CC1)c1nc2cccc(Cl)c2c(=O)n1-c1cccnc1` [Compound 4, (S)-2,4-diamino-6-(1-(5-chloro-4-oxo-3-(pyridin-3-yl)-3,4-dihydroquinazolin-2-yl)-2-cyclopropylethylamino)pyrimidine-5-carbonitrile] had a pIC50 in data set [1] of 8.30. The pEC50 in data set [2] (setting [4]) is 7.30 to 8.00; in data set [2] (setting [5]), 7.66.

The compound `Cc1cccc2nc([C@H](C)Nc3nc(N)nc(N)c3C#N)n(-c3cccnc3)c(=O)c12` [Compound 7, (S)-2,4-diamino-6-(1-(5-methyl-4-oxo-3-(pyridin-3-yl)-3,4-dihydroquinazolin-2-yl)ethylamino)pyrimidine-5-carbonitrile] gave a negative logarithm of the IC50 (pIC50) in data set [1] of 9.40. The negative-log EC50 (pEC50) is greater than 9.00 in data set [2] (setting [4]) and 9.52 in data set [2] (setting [5]).

Turning to `C[C@H](Nc1nc(N)nc(N)c1C#N)c1nc2cccc(S(C)(=O)=O)c2c(=O)n1-c1cccnc1` [Compound 8, (S)-2,4-diamino-6-(1-(5-(methylsulfonyl)-4-oxo-3-(pyridin-3-yl)-3,4-dihydroquinazolin-2-yl)ethylamino)pyrimidine-5-carbonitrile], in data set [1], the negative-log IC50 (pIC50) was 8.05. Further, the results for the pEC50 in data set [2] (setting [4]) and in data set [2] (setting [5]) were less than 7.30 and 7.00, respectively.

For `C[C@H](Nc1nc(N)nc(N)c1C#N)c1nc2cccc(C#N)c2c(=O)n1-c1cccnc1` [Compound 10, (S)-2-(1-((2,6-diamino-5-cyanopyrimidin-4-yl)amino)ethyl)-4-oxo-3-(pyridin-3-yl)-3,4-dihydroquinazoline-5-carbonitrile], in data set [1], the negative logarithm of the IC50 (pIC50) is 8.05. The results for the negative logarithm of the EC50 (pEC50) in data set [2] (setting [4]) and in data set [2] (setting [5]) were 7.30 to 8.00 and 7.77, respectively.

`C[C@H](Nc1nc(N)nc(N)c1C#N)c1nc2cccc(Cl)c2c(=O)n1-c1cncc(Cl)c1` [Compound 13, (S)-2,4-diamino-6-(1-(5-chloro-3-(5-chloropyridin-3-yl)-4-oxo-3,4-dihydroquinazolin-2-yl)ethylamino)pyrimidine-5-carbonitrile] had a pIC50 in data set [1] of 8.10. The results for the pEC50 in data set [2] (setting [4]) and in data set [2] (setting [5]) were 8.00 to 9.00 and 8.40, respectively.

Compound `Cc1cncc(-n2c([C@H](C)Nc3nc(N)nc(N)c3C#N)nc3cccc(Cl)c3c2=O)c1` [Compound 16, (S)-2,4-diamino-6-(1-(5-chloro-3-(5-methylpyridin-3-yl)-4-oxo-3,4-dihydroquinazolin-2-yl)ethylamino)pyrimidine-5-carbonitrile] had a negative-log IC50 (pIC50) in data set [1] of 9.00. Further, the values for the pEC50 in data set [2] (setting [4]) and in data set [2] (setting [5]) were greater than 9.00 and 9.15, respectively.

In turn, `Cc1cncc(-n2c([C@@H](Nc3nc(N)nc(N)c3C#N)C3CC3)nc3cccc(Cl)c3c2=O)c1` [Compound 17, (S)-2,4-diamino-6-((5-chloro-3-(5-methylpyridin-3-yl)-4-oxo-3,4-dihydroquinazolin-2-yl)(cyclopropyl)methylamino)pyrimidine-5-carbonitrile] had a pIC50 in data set [1] of 8.40. Besides, the pEC50 in data set [2] (setting [4]) is 8.00 to 9.00; in data set [2] (setting [5]) it was 8.30.

Regarding `C[C@H](Nc1nc(N)nc(N)c1C#N)c1nc2cccc(Cl)c2c(=O)n1-c1cncc(C(F)(F)F)c1` [Compound 18, (S)-2,4-diamino-6-(1-(5-chloro-4-oxo-3-(5-(trifluoromethyl)pyridin-3-yl)-3,4-dihydroquinazolin-2-yl)ethylamino)pyrimidine-5-carbonitrile], the negative-log IC50 (pIC50) in data set [1] is 7.74. In addition, the negative logarithm of the EC50 (pEC50) in data set [2] (setting [4]) was 7.30 to 8.00; in data set [2] (setting [5]), 7.66.

For `C[C@H](Nc1nc(N)nc(N)c1C#N)c1nc2c(F)ccc(F)c2c(=O)n1-c1cccnc1` [Compound 25, (S)-2,4-diamino-6-(1-(5,8-difluoro-4-oxo-3-(pyridin-3-yl)-3,4-dihydroquinazolin-2-yl)ethylamino)pyrimidine-5-carbonitrile], the pIC50 in data set [1] was 8.10. The negative-log EC50 (pEC50) is 7.30 to 8.00 in data set [2] (setting [4]) and 7.96 in data set [2] (setting [5]).

`C[C@H](Nc1nc(N)nc(N)c1C#N)c1nc2c(F)ccc(C#N)c2c(=O)n1-c1cccnc1` [Compound 34, (S)-2-(1-((2,6-diamino-5-cyanopyrimidin-4-yl)amino)ethyl)-8-fluoro-4-oxo-3-(pyridin-3-yl)-3,4-dihydroquinazoline-5-carbonitrile] gave a negative-log IC50 (pIC50) in data set [1] of 7.68. Also, the results for the pEC50 in data set [2] (setting [4]) and in data set [2] (setting [5]) were 7.30 to 8.00 and 7.66, respectively.

As for `CC[C@H](Nc1nc(N)nc(N)c1C#N)c1nc2c(F)ccc(C#N)c2c(=O)n1-c1cccnc1` [Compound 35, (S)-2-(1-((2,6-diamino-5-cyanopyrimidin-4-yl)amino)propyl)-8-fluoro-4-oxo-3-(pyridin-3-yl)-3,4-dihydroquinazoline-5-carbonitrile], in data set [1], the pIC50 was 7.46. Moreover, the negative logarithm of the EC50 (pEC50) in data set [2] (setting [4]) is less than 7.30; in data set [2] (setting [5]), 7.21.

Turning to `C[C@H](Nc1nc(N)nc(N)c1C#N)c1nc2ccc(F)c(Cl)c2c(=O)n1-c1cccnc1` [Compound 36, (S)-2,4-diamino-6-(1-(5-chloro-6-fluoro-4-oxo-3-(pyridin-3-yl)-3,4-dihydroquinazolin-2-yl)ethylamino)pyrimidine-5-carbonitrile], the negative logarithm of the IC50 (pIC50) in data set [1] was 8.40. Moreover, the pEC50 was 8.00 to 9.00 in data set [2] (setting [4]) and 8.70 in data set [2] (setting [5]).

`N#Cc1c(N)nc(N)nc1N[C@H](c1nc2ccc(F)c(Cl)c2c(=O)n1-c1cccnc1)C1CC1` [Compound 37, (S)-2,4-diamino-6-((5-chloro-6-fluoro-4-oxo-3-(pyridin-3-yl)-3,4-dihydroquinazolin-2-yl)(cyclopropyl)methylamino)pyrimidine-5-carbonitrile]: in data set [1], the negative-log IC50 (pIC50) was 8.30. Besides, the pEC50 in data set [2] (setting [4]) is 7.30 to 8.00; in data set [2] (setting [5]), 7.80.

As for `C[C@H](Nc1ncnc2[nH]cnc12)c1nc2cccc(Cl)c2c(=O)n1-c1ccccc1` [Compound X, reference compound], the pEC50 in data set [2] (Homo sapiens, basophil activation in human whole blood, comparison Table 4) was less than 8.30. Besides, the half-life at 2 μM in data set [3] (cryopreserved hepatocytes, comparison Table 4) was less than 2 h.
